Results published in PubChem BioAssay (NCI).
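Values below derive from 48-hour exposures of cells grown in 96-well plates, with endpoints linearly interpolated between the two concentrations bracketing the appropriate inhibition level. GI50 marks 50% less growth. At the TGI there is no net growth.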

Legend:
Experiment in all cases: NCI anticancer screen, dose series, 48 h
HOP-62 NSCLC = test system: HOP-62 NSCLC
SNB-19 CNS = test system: SNB-19 CNS
MALME-3M melanoma = test system: MALME-3M melanoma
MDA-MB-231 breast = test system: MDA-MB-231 breast
A498 renal = test system: A498 renal
HCT-116 colon = test system: HCT-116 colon
HS 578T breast = test system: HS 578T breast
TK-10 renal = test system: TK-10 renal
OVCAR-3 ovarian = test system: OVCAR-3 ovarian
T-47D breast = test system: T-47D breast
RXF 393 renal = test system: RXF 393 renal
SK-MEL-28 melanoma = test system: SK-MEL-28 melanoma
HT29 colon = test system: HT29 colon
RPMI-8226 leukemia = test system: RPMI-8226 leukemia
SW-620 colon = test system: SW-620 colon
KM12 colon = test system: KM12 colon
UO-31 renal = test system: UO-31 renal
M14 melanoma = test system: M14 melanoma
OVCAR-4 ovarian = test system: OVCAR-4 ovarian
SR leukemia = test system: SR leukemia
IGROV1 ovarian = test system: IGROV1 ovarian
SNB-75 CNS = test system: SNB-75 CNS
HL-60(TB) leukemia = test system: HL-60(TB) leukemia
SK-MEL-2 melanoma = test system: SK-MEL-2 melanoma
BT-549 breast = test system: BT-549 breast
DU-145 prostate = test system: DU-145 prostate
SK-MEL-5 melanoma = test system: SK-MEL-5 melanoma
HCT-15 colon = test system: HCT-15 colon
NCI/ADR-RES ovarian = test system: NCI/ADR-RES ovarian
LOX IMVI melanoma = test system: LOX IMVI melanoma
K-562 leukemia = test system: K-562 leukemia
U251 CNS = test system: U251 CNS
HOP-92 NSCLC = test system: HOP-92 NSCLC
UACC-257 melanoma = test system: UACC-257 melanoma
SF-268 CNS = test system: SF-268 CNS
A549 NSCLC = test system: A549 NSCLC
NCI-H522 lung = test system: NCI-H522 lung
786-0 renal = test system: 786-0 renal
COLO 205 colon = test system: COLO 205 colon
ACHN renal = test system: ACHN renal
MOLT-4 leukemia = test system: MOLT-4 leukemia
PC-3 prostate = test system: PC-3 prostate
SF-295 CNS = test system: SF-295 CNS
OVCAR-8 ovarian = test system: OVCAR-8 ovarian
NCI-H460 lung = test system: NCI-H460 lung
SF-539 CNS = test system: SF-539 CNS
CAKI-1 renal = test system: CAKI-1 renal
MCF7 breast = test system: MCF7 breast
NCI-H226 lung = test system: NCI-H226 lung
EKVX NSCLC = test system: EKVX NSCLC
SK-OV-3 ovarian = test system: SK-OV-3 ovarian
CCRF-CEM leukemia = test system: CCRF-CEM leukemia
HCC-2998 colon = test system: HCC-2998 colon
NCI-H23 lung = test system: NCI-H23 lung
SN12C renal = test system: SN12C renal
UACC-62 melanoma = test system: UACC-62 melanoma
OVCAR-5 ovarian = test system: OVCAR-5 ovarian

## CN(C)c1ccc(C(=S)c2ccc(N(C)C)cc2)cc1
HOP-62 NSCLC
  GI50: 5.09 µM
  TGI: > 100 µM
SNB-19 CNS
  GI50: 6.16 µM
  TGI: > 100 µM
MALME-3M melanoma
  GI50: 5.5 µM
  TGI: > 100 µM
MDA-MB-231 breast
  GI50: 8 µM
  TGI: > 100 µM
A498 renal
  GI50: 3.16 µM
  TGI: 74.8 µM
HCT-116 colon
  GI50: 3.71 µM
  TGI: > 100 µM
HS 578T breast
  GI50: 3.84 µM
  TGI: > 100 µM
TK-10 renal
  GI50: 13.8 µM
  TGI: > 100 µM
OVCAR-3 ovarian
  GI50: 3.93 µM
  TGI: > 100 µM
T-47D breast
  GI50: 6.34 µM
  TGI: > 100 µM
RXF 393 renal
  GI50: 4.81 µM
  TGI: 42.9 µM
SK-MEL-28 melanoma
  GI50: 7.59 µM
  TGI: > 100 µM
HT29 colon
  GI50: 3.79 µM
  TGI: > 100 µM
RPMI-8226 leukemia
  GI50: 9.89 µM
  TGI: > 100 µM
SW-620 colon
  GI50: 3.98 µM
  TGI: > 100 µM
KM12 colon
  GI50: 3.88 µM
  TGI: > 100 µM
UO-31 renal
  GI50: 8.92 µM
  TGI: > 100 µM
M14 melanoma
  GI50: 3.33 µM
  TGI: > 100 µM
OVCAR-4 ovarian
  GI50: 16.9 µM
  TGI: > 100 µM
SR leukemia
  GI50: 3.75 µM
  TGI: 92.6 µM
IGROV1 ovarian
  GI50: 6.29 µM
  TGI: > 100 µM
SNB-75 CNS
  GI50: 5.28 µM
  TGI: 40.2 µM
HL-60(TB) leukemia
  GI50: 4.17 µM
  TGI: > 100 µM
SK-MEL-2 melanoma
  GI50: 3.53 µM
  TGI: 15.2 µM
BT-549 breast
  GI50: 6.76 µM
  TGI: 90.1 µM
DU-145 prostate
  GI50: 20.3 µM
  TGI: > 100 µM
SK-MEL-5 melanoma
  GI50: 3.45 µM
  TGI: 20.6 µM
HCT-15 colon
  GI50: 4.27 µM
  TGI: > 100 µM
NCI/ADR-RES ovarian
  GI50: 2.4 µM
  TGI: 7.66 µM
LOX IMVI melanoma
  GI50: 5.86 µM
  TGI: 88.6 µM
K-562 leukemia
  GI50: 3.61 µM
  TGI: > 100 µM
U251 CNS
  GI50: 6.34 µM
  TGI: > 100 µM
HOP-92 NSCLC
  GI50: 9.01 µM
  TGI: 86.8 µM
UACC-257 melanoma
  GI50: 16.2 µM
  TGI: > 100 µM
SF-268 CNS
  GI50: 10.1 µM
  TGI: > 100 µM
A549 NSCLC
  GI50: 7.81 µM
  TGI: > 100 µM
NCI-H522 lung
  GI50: 2.56 µM
  TGI: 9.31 µM
786-0 renal
  GI50: 10.3 µM
  TGI: > 100 µM
COLO 205 colon
  GI50: 6.83 µM
  TGI: 59 µM
ACHN renal
  GI50: 13.4 µM
  TGI: > 100 µM
MOLT-4 leukemia
  GI50: 6.35 µM
  TGI: > 100 µM
PC-3 prostate
  GI50: 22.5 µM
  TGI: > 100 µM
SF-295 CNS
  GI50: 4.73 µM
  TGI: > 100 µM
OVCAR-8 ovarian
  GI50: 11.6 µM
  TGI: > 100 µM
NCI-H460 lung
  GI50: 3.97 µM
  TGI: > 100 µM
SF-539 CNS
  GI50: 7.1 µM
  TGI: 56.4 µM
CAKI-1 renal
  GI50: 6.15 µM
  TGI: > 100 µM
MCF7 breast
  GI50: 3.92 µM
  TGI: > 100 µM
NCI-H226 lung
  GI50: 22.2 µM
  TGI: > 100 µM
EKVX NSCLC
  GI50: 16.5 µM
  TGI: > 100 µM
SK-OV-3 ovarian
  GI50: 10.9 µM
  TGI: > 100 µM
CCRF-CEM leukemia
  GI50: 6.64 µM
  TGI: > 100 µM
HCC-2998 colon
  GI50: 9.66 µM
  TGI: > 100 µM
NCI-H23 lung
  GI50: 7.28 µM
  TGI: > 100 µM
SN12C renal
  GI50: 5.91 µM
  TGI: > 100 µM
UACC-62 melanoma
  GI50: 4.47 µM
  TGI: > 100 µM
OVCAR-5 ovarian
  GI50: 39.1 µM
  TGI: > 100 µM
